Values after ≈ are worked out from the molar mass of the structure shown. Read-outs that look alike come from different tables or passages of the source.
Assays:
S. mariescens FPOR 8733 = assay: MIC, agar dilution; type: cell-based
[1] = system: S. hemolyticus AVHAH 88-3; assay: MIC, agar dilution; type: cell-based
E. coli UBMS 90-4 Tet M = assay: microbe, parasite or virus in culture; type: cell-based
E. coli J3272 Tet D = assay: microbe, parasite or virus in culture; type: cell-based
[2] = system: E. coli MC 4100 TNIOC Tet B; assay: microbe, parasite or virus in culture; type: cell-based
Enterococcus 12201 = assay: MIC, agar dilution; type: cell-based
[3] = system: Ps. acruginosa ATCC 27853; assay: MIC, agar dilution; type: cell-based
E. coli BAJ9003 IMP MUT = assay: microbe, parasite or virus in culture; type: cell-based
E. faecalis ATCC 29212 = assay: MIC, agar dilution; type: cell-based
E. coli J3272 Tet C = assay: microbe, parasite or virus in culture; type: cell-based; conditions: Escherichia coli, J3272TETC, 18 h
S. aureus NEMC 8769 = assay: MIC, agar dilution; type: cell-based
E. coli UBMS 89-1 Tet M = assay: microbe, parasite or virus in culture; type: cell-based
S. aureus SMITH (MP) = assay: MIC, agar dilution; type: cell-based
S. aureus IVES 1 983 = assay: MIC, agar dilution; type: cell-based; conditions: Staphylococcus aureus, IVES1983, 18 h
[4] = system: S. aureus UBMS 90-1 Tet M; assay: microbe, parasite or virus in culture; type: cell-based
S. aureus UBMS 90-3 = assay: MIC, agar dilution; type: cell-based
E. coli UBMS 90-5 = assay: MIC, agar dilution; type: cell-based
[5] = system: S. aureus UBMS 88-7 Tet K; assay: microbe, parasite or virus in culture; type: cell-based; conditions: Staphylococcus aureus, UBMS887TETK, 18 h
E. coli J2175 = assay: MIC, agar dilution; type: cell-based
[6] = system: E. coli UBMS 89-2 Tet sens.; assay: MIC, agar dilution; type: cell-based
S. aureus IVES 2943 = assay: MIC, agar dilution; type: cell-based; conditions: Staphylococcus aureus, IVES2943, 18 h
E. coli ATCC 25922 = assay: MIC, agar dilution; type: cell-based
[7] = system: S. aureus UBMS 90-2 Tet M; assay: microbe, parasite or virus in culture; type: cell-based
[8] = system: S. aureus UBMS 88-5 Tet M; assay: microbe, parasite or virus in culture; type: cell-based
S. aureus ROSE (MP) = assay: MIC, agar dilution; type: cell-based; conditions: Staphylococcus aureus, 18 h
S. aureus UBMS 88-4 = assay: MIC, agar dilution; type: cell-based
E. coli J3272 Tet sens. = assay: MIC, agar dilution; type: cell-based; conditions: Escherichia coli, 18 h, read-out: MIC
S. aureus ATCC 29213 = assay: MIC, agar dilution; type: cell-based
E. coli #311 (MP) = assay: MIC, agar dilution; type: cell-based
E. coli UBMS 88-1 Tet B = assay: microbe, parasite or virus in culture; type: cell-based
E. coli PRP1 Tet A = assay: microbe, parasite or virus in culture; type: cell-based
[9] = system: X. maltophilia NEMC 87210; assay: MIC, agar dilution; type: cell-based
[10] = system: E. coli MC 4100 Tet sens.; assay: MIC, agar dilution; type: cell-based
[11] = system: Wild Type S30 (wild type ribosomes, E. coli strain MRE600, tetracycline sensitive); assay: E. coli in vitro protein translation system, wild type S30
[12] = Escherichia coli, J3272TETD, 18 h
[13] = Escherichia coli, BAJ9003IMPMUT, 18 h
[14] = Enterococcus faecalis, ATCC29212, 18 h
[15] = Escherichia coli, UBMS891TETM, 18 h
[16] = Staphylococcus aureus, UBMS901TETM, 18 h
[17] = Staphylococcus aureus, UBMS903, 18 h
[18] = Escherichia coli, UBMS905, 18 h, read-out: MIC
[19] = Escherichia coli, ATCC25922, 18 h
[20] = Staphylococcus aureus, UBMS902TETM, 18 h
[21] = Staphylococcus aureus, UBMS885TETM, 18 h
[22] = Staphylococcus aureus, UBMS884, 18 h
[23] = Escherichia coli, UBMS881TETB, 18 h

## CN(C)[C@@H]1C(=O)C(C(N)=O)=C(O)[C@@]2(O)C(=O)C3=C(O)c4c(O)cccc4[C@@](C)(O)[C@H]3C[C@@H]12 [N, Tetracycline]
S. mariescens FPOR 8733; 18 h, read-out: MIC
  MIC: 32 µg/mL (≈ 72 µM)
[1]; Streptococcus pyogenes, AVHAH883, 18 h
  MIC: 0.5 µg/mL (≈ 1.13 µM)
E. coli UBMS 90-4 Tet M; Escherichia coli, UBMS904TETM, 18 h
  MIC: 16 µg/mL (≈ 36 µM)
E. coli J3272 Tet D; [12]
  MIC: > 32 µg/mL
[2]; Escherichia coli, 18 h
  MIC: > 32 µg/mL
Enterococcus 12201; Enterococcus, 12201, 18 h
  MIC: 32 µg/mL (≈ 72 µM)
[3]; 18 h
  MIC: 8 µg/mL (≈ 18 µM)
E. coli BAJ9003 IMP MUT; [13]
  MIC: 0.25 µg/mL (≈ 0.563 µM)
E. faecalis ATCC 29212; [14]
  MIC: 8 µg/mL (≈ 18 µM)
E. coli J3272 Tet C
  MIC: > 32 µg/mL
S. aureus NEMC 8769; Staphylococcus aureus, NEMC8769, 18 h
  MIC: 0.03 µg/mL (≈ 0.0675 µM)
E. coli UBMS 89-1 Tet M; [15]
  MIC: 8 µg/mL (≈ 18 µM)
S. aureus SMITH (MP); Staphylococcus aureus, 18 h
  MIC: 0.06 µg/mL (≈ 0.135 µM)
S. aureus IVES 1 983
  MIC: > 32 µg/mL
[4]; [16]
  MIC: 32 µg/mL (≈ 72 µM)
S. aureus UBMS 90-3; [17]
  MIC: 0.06 µg/mL (≈ 0.135 µM)
E. coli UBMS 90-5; [18]
  MIC: 1 µg/mL (≈ 2.25 µM)
[5]
  MIC: > 32 µg/mL
E. coli J2175; Escherichia coli, J2175, 18 h
  MIC: 1 µg/mL (≈ 2.25 µM)
[6]; Escherichia coli, 18 h
  MIC: 1 µg/mL (≈ 2.25 µM)
S. aureus IVES 2943
  MIC: > 32 µg/mL
E. coli ATCC 25922; [19]
  MIC: 0.5 µg/mL (≈ 1.13 µM)
[7]; [20]
  MIC: 32 µg/mL (≈ 72 µM)
[8]; [21]
  MIC: > 32 µg/mL
S. aureus ROSE (MP)
  MIC: > 32 µg/mL
S. aureus UBMS 88-4; [22]
  MIC: 0.06 µg/mL (≈ 0.135 µM)
E. coli J3272 Tet sens.
  MIC: 0.5 µg/mL (≈ 1.13 µM)
S. aureus ATCC 29213; Staphylococcus aureus, ATCC29213, 18 h
  MIC: 0.06 µg/mL (≈ 0.135 µM)
E. coli #311 (MP); Escherichia coli, 18 h
  MIC: 1 µg/mL (≈ 2.25 µM)
E. coli UBMS 88-1 Tet B; [23]
  MIC: > 32 µg/mL
E. coli PRP1 Tet A; Escherichia coli, PRP1TETA, 18 h
  MIC: 32 µg/mL (≈ 72 µM)

## CN(C)c1cc(NC(=O)CNCCF)c(O)c2c1CC1CC3C(N(C)C)C(O)=C(C(N)=O)C(=O)C3(O)C(O)=C1C2=O (stereo not drawn) [T, [4S-(4alpha,12aalpha)]-4,7-Bis(dimethylamino)-9-[[[(2-fluoroethyl)amino]acetyl]amino]-1,4,4a,5,5a,6,11,12a-octahydro3,10,12,12a-tetrahydroxy-1,11-dioxo-2-naphthacenecarboxamide]
S. mariescens FPOR 8733
  MIC: > 32 µg/mL
[1]; S. hemolyticus AVHAH 88-3
  MIC: 8 µg/mL (≈ 13.9 µM)
E. coli UBMS 90-4 Tet M; E. coli UBMS 90-4 Tet M
  MIC: 8 µg/mL (≈ 13.9 µM)
E. coli J3272 Tet D; E. coli J3272 Tet D
  MIC: 8 µg/mL (≈ 13.9 µM)
[2]; E. coli MC 4100 TNIOC Tet B
  MIC: 16 µg/mL (≈ 27.8 µM)
Enterococcus 12201; Enterococcus 12201
  MIC: 2 µg/mL (≈ 3.47 µM)
[3]; Ps. acruginosa ATCC 27853
  MIC: > 32 µg/mL
E. coli BAJ9003 IMP MUT; E. coli BAJ9003 IMP MUT
  MIC: 1 µg/mL (≈ 1.74 µM)
E. faecalis ATCC 29212; E. faecalis ATCC 29212
  MIC: 1 µg/mL (≈ 1.74 µM)
S. aureus NEMC 8769; S. aureus NEMC 8769
  MIC: 4 µg/mL (≈ 6.95 µM)
E. coli UBMS 89-1 Tet M; E. coli UBMS 89-1 Tet M
  MIC: 8 µg/mL (≈ 13.9 µM)
S. aureus SMITH (MP); S. aureus SMITH (MP)
  MIC: 1 µg/mL (≈ 1.74 µM)
[9]
  MIC: 16 µg/mL (≈ 27.8 µM)
[4]; S. aureus UBMS 90-1 Tet M
  MIC: 4 µg/mL (≈ 6.95 µM)
S. aureus UBMS 90-3; S. aureus UBMS 90-3
  MIC: 2 µg/mL (≈ 3.47 µM)
E. coli UBMS 90-5
  MIC: 16 µg/mL (≈ 27.8 µM)
E. coli J2175; E. coli J2175
  MIC: 16 µg/mL (≈ 27.8 µM)
[6]; E. coli UBMS 89-2 Tet sens.
  MIC: 16 µg/mL (≈ 27.8 µM)
E. coli ATCC 25922; E. coli ATCC 25922
  MIC: 8 µg/mL (≈ 13.9 µM)
[7]; S. aureus UBMS 90-2 Tet M
  MIC: 4 µg/mL (≈ 6.95 µM)
[8]; S. aureus UBMS 88-5 Tet M
  MIC: 4 µg/mL (≈ 6.95 µM)
[10]
  MIC: 2 µg/mL (≈ 3.47 µM)
S. aureus UBMS 88-4; S. aureus UBMS 88-4
  MIC: 4 µg/mL (≈ 6.95 µM)
S. aureus ATCC 29213; S. aureus ATCC 29213
  MIC: 4 µg/mL (≈ 6.95 µM)
E. coli #311 (MP); E. coli #311 (MP)
  MIC: 16 µg/mL (≈ 27.8 µM)
E. coli UBMS 88-1 Tet B; E. coli UBMS 88-1 Tet B, 18 hours at 35° C.
  MIC: 16 µg/mL (≈ 27.8 µM)
E. coli PRP1 Tet A; E. coli PRP1 Tet A
  MIC: > 32 µg/mL

## CN(C)c1ccc(O)c2c1C[C@H]1C[C@H]3[C@H](N(C)C)C(O)=C(C(N)=O)C(=O)[C@@]3(O)C(O)=C1C2=O [O, Minocycline, reference compound]
S. mariescens FPOR 8733; 18 h, read-out: MIC
  MIC: 2 µg/mL (≈ 4.37 µM)
E. coli J3272 Tet D; [12]
  MIC: 8 µg/mL (≈ 17.5 µM)
[2]; Escherichia coli, 18 h
  MIC: 8 µg/mL (≈ 17.5 µM)
[3]; 18 h
  MIC: 8 µg/mL (≈ 17.5 µM)
E. coli BAJ9003 IMP MUT; [13]
  MIC: 0.03 µg/mL (≈ 0.0656 µM)
E. faecalis ATCC 29212; [14]
  MIC: 1 µg/mL (≈ 2.19 µM)
E. coli J3272 Tet C
  MIC: 2 µg/mL (≈ 4.37 µM)
S. aureus NEMC 8769; Staphylococcus aureus, NEMC8769, 18 h, S. aureus NEMC 8769, read-out: MIC
  MIC: < 0.015 µg/mL
[11]; Conc. 0.06 mg/ml
  % Inhibition Wild Type S30: 78%
[11]; Conc. 1.0 mg/ml
  % Inhibition Wild Type S30: 98%
[11]; coupled transcription and translation system
  inhibition of protein synthesis occuring on wild type ribosomes: effectively inhibit protein synthesis
E. coli UBMS 89-1 Tet M; [15]
  MIC: 8 µg/mL (≈ 17.5 µM)
S. aureus SMITH (MP); Staphylococcus aureus, 18 h, S. aureus SMITH (MP), read-out: MIC
  MIC: 0.03 µg/mL (≈ 0.0656 µM)
S. aureus IVES 1 983
  MIC: 2 µg/mL (≈ 4.37 µM)
[4]; [16]
  MIC: 4 µg/mL (≈ 8.74 µM)
S. aureus UBMS 90-3; [17]
  MIC: 0.03 µg/mL (≈ 0.0656 µM)
E. coli UBMS 90-5; [18]
  MIC: 0.5 µg/mL (≈ 1.09 µM)
E. coli J2175; Escherichia coli, J2175, 18 h
  MIC: 0.5 µg/mL (≈ 1.09 µM)
[6]; Escherichia coli, 18 h
  MIC: 0.5 µg/mL (≈ 1.09 µM)
S. aureus IVES 2943
  MIC: 2 µg/mL (≈ 4.37 µM)
E. coli ATCC 25922; [19]
  MIC: 0.5 µg/mL (≈ 1.09 µM)
[7]; [20]
  MIC: 2 µg/mL (≈ 4.37 µM)
[8]; [21]
  MIC: 4 µg/mL (≈ 8.74 µM)
S. aureus ROSE (MP)
  MIC: 0.5 µg/mL (≈ 1.09 µM)
S. aureus UBMS 88-4; [22]
  MIC: 0.03 µg/mL (≈ 0.0656 µM)
E. coli J3272 Tet sens.
  MIC: 0.5 µg/mL (≈ 1.09 µM)
S. aureus ATCC 29213; Staphylococcus aureus, ATCC29213, 18 h, S. aureus ATCC 29213, read-out: MIC
  MIC: 0.03 µg/mL (≈ 0.0656 µM)
E. coli #311 (MP); Escherichia coli, 18 h
  MIC: 0.25 µg/mL (≈ 0.546 µM)
E. coli UBMS 88-1 Tet B; [23]
  MIC: 16 µg/mL (≈ 35 µM)

— patent publication US5328902A, “7-(substituted)-9-[(substituted glycyl)amido]-6-demethyl-6-deoxytetracyclines” (American Cyanamid Co., priority 1992, dated 1994)
